From US10875876B2, “Cyclized sulfamoylarylamide derivatives and the use thereof as medicaments for the treatment of hepatitis B” (priority 2015, dated 2020) come the findings set out here.

The structures appear in SMILES notation. pEC50: −log10 of the molar value. Like-named read-outs stand apart in the source and are kept apart here.

One data set concerns HBV. Kind of data set: anti HBV activity, HepG2.117 cell line, intracellular HBV DNA by realtime PCR. The note with it: HepG2.117 cell line (Tet-off), 3 days of treatment, intracellular HBV DNA quantified by realtime PCR, read-out: HBV-AVE-HepG2.117 EC50. The format is cell-based. Put shortly: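 HepG2.117 cells, a Tet-off line that replicates HBV without doxycycline, were induced and then treated in duplicate with serially diluted compound. After 3 days, intracellular HBV DNA was quantified by real-time PCR with an HBV-specific primer set and probe.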

Data set [1] in a line: Cytotoxicity in HepG2 cells, Resazurin assay. To be noted: human, HepG2 cells, TOX-HepG2-4 d CC50 (μM), HepG2 cells incubated for 4 days, viability by Resazurin assay.
Where [2] appears, read: Hepatitis B virus, HepG2.117, 72 h.

As usually defined, the pEC50 is the EC50 on a negative log10 scale, so that one unit is a factor of ten. As usually defined, the melting point is the temperature, or range, at which the solid turns liquid. One may read the CC50 as the concentration at which the toxic effect on the cells reaches its halfway point. A low value points to harm at low concentration. Molecule `Cn1ccc(C2(C)COc3c(cn(C)c3C(=O)Nc3ccc(F)c(F)c3)S(=O)(=O)N2)n1` (single isomer, unassigned) [Compound 192a, N-(3,4-difluorophenyl)-3,7-dimethyl-3-(1-methylpyrazol-3-yl)-1,1-dioxo-2,4-dihydropyrrolo[3,4-b][1,4,5]oxathiazepine-6-carboxamide] came in with a melting point of 208.7 °C. Besides, the pEC50 in the data set with HBV (setting [2]) is 7.44. Also, in data set [1], the half-maximal cytotoxic concentration (CC50) at 4 days was > 25 µM.
Taken in the same sequence, the figures for `C[C@H](O)[C@H]1CCc2c(cn(C)c2C(=O)Nc2ccc(F)c(C(F)F)c2)S(=O)(=O)N1` [Compound 103, (3R)—N-[3-(difluoromethyl)-4-fluoro-phenyl]-3-[(1S)-1-hydroxyethyl]-7-methyl-1,1-dioxo-2,3,4,5-tetrahydropyrrolo[3,4-f]thiazepine-6-carboxamide] were 274.7 °C, 8.22 and > 25 µM.
As to `Cn1cc2c(c1C(=O)Nc1ccc(F)c(F)c1)C=CCNS2(=O)=O` [Compound 9, N-(3,4-difluorophenyl)-7-methyl-1,1-dioxo-2,3-dihydropyrrolo[3,4-f]-thiazepine-6-carboxamide], the melting point was found to be 221.9 °C. For the same molecule, in the data set on HBV (setting [2]), the pEC50 was 7.44. Besides, in data set [1], the CC50 at 4 days was > 25 µM.
Taken in the same sequence, the figures for `Cn1cc2c(c1C(=O)Nc1ccc(F)c(F)c1)CC[C@H](C(C)(C)O)NS2(=O)=O` [Compound 102, (3R)—N-(3,4-difluorophenyl)-3-(1-hydroxy-1-methyl-ethyl)-7-methyl-1,1-dioxo-2,3,4,5-tetrahydropyrrolo[3,4-f]thiazepine-6-carboxamide] were 218.2 °C, 8.05 and > 25 µM.
The molecule `C[C@H](O)[C@H]1C=Cc2c(cn(C)c2C(=O)Nc2ccc(F)c(C(F)F)c2)S(=O)(=O)N1` [Compound 96, (3R)—N-[3-(difluoromethyl)-4-fluoro-phenyl]-3-[(1S)-1-hydroxyethyl]-7-methyl-1,1-dioxo-2,3-dihydropyrrolo[3,4-f]thiazepine-6-carboxamide] returned a melting point of 182.3 °C. Further, the negative logarithm of the EC50 (pEC50) in the data set on HBV (setting [2]) was 8.30. In addition, the CC50 at 4 days in data set [1] is > 25 µM.
The molecule `Cn1cc2c(c1C(=O)Nc1ccc(F)c(Cl)c1)OC[C@H](C(C)(C)O)NS2(=O)=O` [Compound 180, (3R)—N-(3-chloro-4-fluoro-phenyl)-3-(1-hydroxy-1-methyl-ethyl)-7-methyl-1,1-dioxo-3,4-dihydro-2H-pyrrolo[3,4-b][1,4,5]oxathiazepine-6-carboxamide] showed a melting point of 234.1 °C. Moreover, in the data set with HBV (setting [2]), the pEC50 is 8.30. The CC50 at 4 days in data set [1] was > 25 µM.
On to `Cn1cc2c(c1C(=O)Nc1ccc(F)c(F)c1)CC[C@@H](C(C)(C)O)NS2(=O)=O` [Compound 113, (3S)—N-(3,4-difluorophenyl)-3-(1-hydroxy-1-methyl-ethyl)-7-methyl-1,1-dioxo-2,3,4,5-tetrahydropyrrolo[3,4-f]thiazepine-6-carboxamide], for which the melting point came to 217.7 °C. Also, the negative-log EC50 (pEC50) with HBV (setting [2]) is 6.92. Besides, the CC50 at 4 days in data set [1] is > 25 µM.
As for `Cn1cc2c(c1C(=O)Nc1ccc(F)c(F)c1)OCC(C)(c1cnccn1)NS2(=O)=O` (single isomer, unassigned) [Compound 145a, N-(3,4-difluorophenyl)-3,7-dimethyl-1,1-dioxo-3-pyrazin-2-yl-2,4-dihydropyrrolo[3,4-b][1,4,5]oxathiazepine-6-carboxamide], the melting point is 199.4 °C. For the same molecule, the negative-log EC50 (pEC50) in the data set on HBV was 7.85. In data set [1], the 50% cytotoxic concentration (CC50) at 4 days is > 25 µM.
`Cn1cc2c(c1C(=O)Nc1ccc(F)c(F)c1)OC[C@@](C)(c1ccccn1)NS2(=O)=O` [Compound 126, (3R)—N-(3,4-difluorophenyl)-3,7-dimethyl-1,1-dioxo-3-(2-pyridyl)-2,4-dihydropyrrolo[3,4-b][1,4,5]oxathiazepine-6-carboxamide] had a melting point of 270.5 °C. Besides, the negative logarithm of the EC50 (pEC50) in the data set on HBV (setting [2]) is 7.21. Moreover, the cytotoxic concentration (CC50) at 4 days in data set [1] was > 25 µM.
For `Cn1cc2c(c1C(=O)Nc1ccc(F)c(F)c1)OCC(C)(c1ccccc1)NS2(=O)=O` (stereo not drawn) [Compound 125, N-(3,4-difluorophenyl)-3,7-dimethyl-1,1-dioxo-3-phenyl-2,4-dihydropyrrolo[3,4-b][1,4,5]oxathiazepine-6-carboxamide], the melting point is 256.6 °C. The negative-log EC50 (pEC50) with HBV (setting [2]) was 8.15. In data set [1], the 50% cytotoxic concentration (CC50) at 4 days is > 25 µM.
In the same order, the values of `Cn1ccnc1CC1(C)COc2c(cn(C)c2C(=O)Nc2ccc(F)c(C(F)F)c2)S(=O)(=O)N1` (stereo not drawn) [Compound 187, N-[3-(difluoromethyl)-4-fluoro-phenyl]-3,7-dimethyl-3-[(1-methylimidazol-2-yl)methyl]-1,1-dioxo-2,4-dihydropyrrolo[3,4-b][1,4,5]oxathiazepine-6-carboxamide] are 282.8 °C, 8.52 and > 25 µM.
`Cn1cc2c(c1C(=O)Nc1ccc(F)c(F)c1)OCC(C)(Cc1ccc(Br)nc1)NS2(=O)=O` (stereo not drawn) [Compound 171, 3-[(6-bromo-3-pyridyl)methyl]-N-(3,4-difluorophenyl)-3,7-dimethyl-1,1-dioxo-2,4-dihydropyrrolo[3,4-b][1,4,5]oxathiazepine-6-carboxamide] gave a melting point of 259.2 °C. For the same molecule, in the data set on HBV (setting [2]), the pEC50 was 8.10. Also, the CC50 at 4 days in data set [1] was > 25 µM.
In the same order, the values of `Cn1cc2c(c1C(=O)Nc1ccc(F)c(C#N)c1)OC[C@H](C(C)(C)O)NS2(=O)=O` [Compound 106, (3R)—N-(3-cyano-4-fluoro-phenyl)-3-(1-hydroxy-1-methyl-ethyl)-7-methyl-1,1-dioxo-3,4-dihydro-2H-pyrrolo[3,4-b][1,4,5]oxathiazepine-6-carboxamide] are 260.1 °C, 8.10 and > 25 µM.
The molecule `Cn1cc2c(c1C(=O)Nc1ccc(F)c(C(F)F)c1)OC[C@@H](C(C)(C)O)NS2(=O)=O` [Compound 101, (3S)—N-[3-(difluoromethyl)-4-fluoro-phenyl]-3-(1-hydroxy-1-methyl-ethyl)-7-methyl-1,1-dioxo-3,4-dihydro-2H-pyrrolo[3,4-b][1,4,5]oxathiazepine-6-carboxamide] returned a melting point of 214.4 °C. Also, the pEC50 in the data set with HBV (setting [2]) is 7.85. In addition, the CC50 at 4 days in data set [1] is > 25 µM.
Molecule `Cn1cc2c(c1C(=O)Nc1ccc(F)c(F)c1)OC[C@@H](C(C)(C)F)NS2(=O)=O` [Compound 121, (3S)—N-(3,4-difluorophenyl)-3-(1-fluoro-1-methyl-ethyl)-7-methyl-1,1-dioxo-3,4-dihydro-2H-pyrrolo[3,4-b][1,4,5]oxathiazepine-6-carboxamide] had a melting point of 239.8 °C. In addition, the negative-log EC50 (pEC50) with HBV (setting [2]) was 7.54. Moreover, the 50% cytotoxic concentration (CC50) at 4 days in data set [1] was > 25 µM.
The molecule `Cn1cc2c(c1C(=O)Nc1ccc(F)c(F)c1)OCC(C)(Cc1ccncc1)NS2(=O)=O` (stereo not drawn) [Compound 191, N-(3,4-difluorophenyl)-3,7-dimethyl-1,1-dioxo-3-(4-pyridylmethyl)-2,4-dihydropyrrolo[3,4-b][1,4,5]oxathiazepine-6-carboxamide] had a melting point of 276 °C. The pEC50 in the data set with HBV (setting [2]) is 8.00. Moreover, in data set [1], the 50% cytotoxic concentration (CC50) at 4 days was > 25 µM.
In turn, `Cn1ccnc1CC1(C)COc2c(cn(C)c2C(=O)Nc2ccc(F)c(F)c2)S(=O)(=O)N1` (stereo not drawn) [Compound 173, N-(3,4-difluorophenyl)-3,7-dimethyl-3-[(1-methylimidazol-2-yl)methyl]-1,1-dioxo-2,4-dihydropyrrolo[3,4-b][1,4,5]oxathiazepine-6-carboxamide] displayed a melting point of 297.1 °C. Also, the negative logarithm of the EC50 (pEC50) with HBV (setting [2]) was 7.77. In addition, the CC50 at 4 days in data set [1] is > 25 µM.
`C[C@H]1CCc2c(cn(C)c2C(=O)Nc2ccc(F)c(C(F)F)c2F)S(=O)(=O)N1` [Compound 164, (3S)—N-[3-(difluoromethyl)-2,4-difluoro-phenyl]-3,7-dimethyl-1,1-dioxo-2,3,4,5-tetrahydropyrrolo[3,4-f]thiazepine-6-carboxamide] gave a melting point of 227.7 °C. Besides, in the data set with HBV (setting [2]), the pEC50 was 7.92. The 50% cytotoxic concentration (CC50) at 4 days in data set [1] was > 25 µM.
Regarding `Cn1cc2c(c1C(=O)Nc1ccc(F)c(F)c1)OCC(C)(Cc1cccnc1)NS2(=O)=O` (racemic) [Compound 199, N-(3,4-difluorophenyl)-3,7-dimethyl-1,1-dioxo-3-(3-pyridylmethyl)-2,4-dihydropyrrolo[3,4-b][1,4,5]oxathiazepine-6-carboxamide], the melting point is 268.3 °C. The negative logarithm of the EC50 (pEC50) in the data set with HBV (setting [2]) was 7.82. Further, the CC50 at 4 days in data set [1] is > 25 µM.
In the same order, the values of `C[C@H](O)[C@H]1C=Cc2c(cn(C)c2C(=O)Nc2cc(F)c(F)c(F)c2)S(=O)(=O)N1` [Compound 98, (3R)-3-[(1S)-1-hydroxyethyl]-7-methyl-1,1-dioxo-N-(3,4,5-trifluorophenyl)-2,3-dihydropyrrolo[3,4-f]thiazepine-6-carboxamide] are 244 °C, 8.10 and > 25 µM.
As for `Cn1cc2c(c1C(=O)Nc1ccc(F)c(C#N)c1)OC[C@@H](C(C)(C)O)NS2(=O)=O` [Compound 107, (3S)—N-(3-cyano-4-fluoro-phenyl)-3-(1-hydroxy-1-methyl-ethyl)-7-methyl-1,1-dioxo-3,4-dihydro-2H-pyrrolo[3,4-b][1,4,5]oxathiazepine-6-carboxamide], the melting point amounted to 259.8 °C. In addition, in the data set on HBV (setting [2]), the pEC50 is 7.10. Moreover, the 50% cytotoxic concentration (CC50) at 4 days in data set [1] is > 25 µM.
